Data from patent publication US10928381B2, “In vitro methods of monitoring autophagy in a human cell using a photoconvertable fluorescent protein linked biomarker” (The Regents of the University of Michigan, priority 2018, dated 2021).

What was measured:
Dendra2-LC3 HEK cells = assay: Native (green, GFP) Dendra2-LC3 intensity and puncta, phase I primary screen readout (T15/T0); assay type: cell-based, human; conditions: for GFP intensity of native Dendra2-LC3: vs DMSO
Text: Conventional methods for estimating autophagy flux rely upon the assessment of LC3 or other autophagy substrates by Western blotting or immunocytochemistry (Ref. 27; herein incorporated by reference in its entirety); by their very nature, these techniques are static and limited to dead cells. Fluorescence-based methods that use tagged substrates allow visualization of autophagy within living cells, but typically require the overexpression of autophagy target proteins that may disrupt the very process they are intended to measure. To assess autophagy in human cells without compromising or interfering with the pathway, experiments were conducted during development of embodiments herein utilizing CRISPR/Cas9 genome editing (Refs. 29-30; herein incorporated by reference in their entireties) to insert the Dendra2 open reading frame into the MAP1LC3B locus (encoding LC3) of HEK cells (FIG. 2a). A mutated, nickase version of Cas9 (Cas9n) was used that is incapable of making double-stranded DNA breaks, thereby minimizing the risk of non-homologous end joining and unwanted insertions or deletions (Refs. 29, 35; herein incorporated by reference in their entireties). Two separate single guide RNAs (sgRNAs) were designed that recognize sequences just upstream and downstream of the MAP1LC3B start codon, and a homology directed repair (HDR) vector encoding the Dendra2 open reading frame flanked by 400 bp of homologous sequence surrounding the MAP1LC3B start codon (FIG. 2a). Following expression of the sgRNAs, Cas9n and the HDR in HEK cells, colonies were selected based upon green fluorescence and passaged to homogeneity (FIG. 2b). The insertion site was confirmed by DNA sequencing, PCR, and immunocytochemistry using antibodies that recognize LC3. Providing further validation of the insertion, transfection with siRNA directed against the MAP1LC3B locus elicited a significant reduction in Dendra2-LC3 protein levels as measured by western blotting and native GFP fluorescence (FIG. 2c, d). In untreated cells, Dendra2-LC3 fluorescence appears diffuse, as expected (FIG. 3a). […] Second, autophagy induction in these cells is accompanied not only by the formation of puncta, but also by relative decreases in diffuse Dendra2-LC3 fluorescence, as indicated by the model in FIG. 1.
For these studies the potent mTOR inhibitor torin1 (Ref. 36; herein incorporated by reference in its entirety) was selected as a positive control for autophagy induction, and the vacuolar ATPase inhibitor bafilomycin-A1 (Ref. 37; herein incorporated by reference in its entirety) as a positive control for autophagy inhibition. In each case, DMSO served as a vehicle (negative) control. Dendra2-LC3 was photoconverted immediately prior to drug application, and the fluorescence intensity in the green (GFP) and red (RFP) channels was measured at regular intervals for 15 h.
The Z′ value for the effect of torin1 on the normalized GFP intensity, calculated as a ratio of GFP intensity at 15 h to that at 0 h (T15/T0), was 0.63 when the assay was conducted in a 96-well format in our laboratory, and 0.56 when conducted in a 384-well format at the Center for Chemical Genomics (CCG, FIG. 3e), indicative of a robust screening platform (Ref. 38; herein incorporated by reference in its entirety). […] The false negative rate was near zero, ensuring a highly sensitive assay.
The possibility that cell death and toxicity mimics the reduction in GFP intensity that would otherwise denote autophagy induction was also addressed. To avoid confounding from toxicity, the area occupied by cells in each image is calculated using ImageJ software and used as a proxy for cell number; since all wells received the same number of cells, >25% reductions in the area occupied by cells at the end of the experiment indicates toxicity. The formation of Dendra2-LC3 puncta in each condition is scored simultaneously using the ‘analyze particles’ function in ImageJ. […]

[1] = test system: Tandem reporter (RFP-GFP-LC3) HeLa cells; assay: Tandem reporter (RFP-GFP-LC3) assay, % of RFP puncta that are GFP positive; assay type: cell-based; conditions: imaged after 12 hours
Protocol: FIG. 13A-E. Validation of novel autophagy inhibitors with an independent measure of autophagic flux. (FIG. 13A) Tandem reporter (RFP-GFP-LC3) HeLa cells treated with the indicated compounds and imaged after 12 hours in RFP (middle panels) GFP (bottom panels). […] Concentrations used correspond to the lowest dose resulting in the maximum degree of colocalization between GFP and RFP puncta as calculated in (B). These are: 3 nM Bafilomycin, 1 uM Quinacrine, 50 uM 245536, and 100 uM of 254522, 45808, 234794, and 237373. (Scale bar: 50 μm) (FIG. 13B) The percentage of RFP positive puncta that are also GFP positive in tandem reporter HeLa cells was analyzed using Cell Profiler. First GFP (1a) and RFP (1b) images of the same field of cells are uploaded into Cell Profiler. Using the GFP images, nuclei are identified (2a-green outlines) and a nuclear mask (2b) is generated. […] Cellular boundries are identified (3a-purple outlines) and a cellular mask is created. […] Only puncta within this mask will be evaluated in subsequent steps. […] (FIG. 13D) Tandem reporter HeLa cells were imaged once prior to drug treatment and then treated with the lowest dose that produced the maximum response as calculated in (FIG. 13C) and imaged immediately after. […] Each point is calculated by taking the mean % of (GFP+/RFP+ puncta)/(RFP+) from 8 technical replicates. […]

CO/C1=C\C(C)=C\[C@@H](C)[C@@H](O)[C@@H](C)C/C(C)=C/C=C/[C@H](OC)[C@@H]([C@@H](C)[C@@H](O)[C@H](C)[C@@]2(O)C[C@@H](O)[C@H](C)[C@@H](C(C)C)O2)OC1=O [Bafilomycin-A1, bafilomycin-A1]
Effect on torin1-elicited reduction in GFP intensity (Dendra2-LC3 HEK cells; co-treatment with torin1): fully blocked
Lowest dose resulting in the maximum degree of colocalization between GFP and RFP puncta [1]: 3 nM

CCC(=O)N1CCN(c2ccc(-n3c(=O)ccc4cnc5ccc(-c6cnc7ccccc7c6)cc5c43)cc2C(F)(F)F)CC1 [Torin1, torin1]
Formation of Dendra2-LC3 (LC3-positive) puncta (Dendra2-LC3 HEK cells; FPZ 0.5 μM, torin1 1 μM): elicits the formation of LC3-positive puncta
GFP intensity of native Dendra2-LC3 (Dendra2-LC3 HEK cells; FPZ 0.5 μM, torin1 1 μM): return is prevented
GFP intensity of native Dendra2-LC3 (Dendra2-LC3 HEK cells; FPZ 0.5 μM, torin1 1 μM, listed as torin1): highly significant and durable reduction
GFP intensity of native Dendra2-LC3 (Dendra2-LC3 HEK cells; FPZ 0.5 μM, torin1 1 μM, listed as torin-1): reduces the steady-state GFP intensity
Rank among autophagy inducers in phase I (Dendra2-LC3 HEK cells; Prestwick and Enzo collections): rank among the most potent inducers
